Reference: ChEMBL document CHEMBL1201862, “PubChem BioAssay data set” (2004)
The source made the active and inactive calls. Rule as the data show it: actives have a measured IC50 and inactives only a lower limit.

How the values were obtained:
Type in all cases: functional
Caspase-3 = target: T1, Caspase-3 (Homo sapiens, UniProt P42574);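 also: Dose-response selectivity test against caspase-3 for candidate inhibitors of sentrin-specific proteases (SENPs)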
T1 sequence (P42574 whole entry): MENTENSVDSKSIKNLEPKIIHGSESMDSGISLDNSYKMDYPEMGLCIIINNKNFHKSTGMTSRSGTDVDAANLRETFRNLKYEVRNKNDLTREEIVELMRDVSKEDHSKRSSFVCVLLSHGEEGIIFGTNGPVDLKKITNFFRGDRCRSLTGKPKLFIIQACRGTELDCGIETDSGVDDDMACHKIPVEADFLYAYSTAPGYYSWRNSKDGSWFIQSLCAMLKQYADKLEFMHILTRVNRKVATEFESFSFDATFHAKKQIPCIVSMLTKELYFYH

[1] = target: T2, Sentrin-specific protease 7 (Homo sapiens, UniProt Q9BQF6);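 also: Luminescence-based dose-response confirmation of ultra-high-throughput screening hits, measuring inhibition of SENP7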
T2 sequence (Q9BQF6 whole entry): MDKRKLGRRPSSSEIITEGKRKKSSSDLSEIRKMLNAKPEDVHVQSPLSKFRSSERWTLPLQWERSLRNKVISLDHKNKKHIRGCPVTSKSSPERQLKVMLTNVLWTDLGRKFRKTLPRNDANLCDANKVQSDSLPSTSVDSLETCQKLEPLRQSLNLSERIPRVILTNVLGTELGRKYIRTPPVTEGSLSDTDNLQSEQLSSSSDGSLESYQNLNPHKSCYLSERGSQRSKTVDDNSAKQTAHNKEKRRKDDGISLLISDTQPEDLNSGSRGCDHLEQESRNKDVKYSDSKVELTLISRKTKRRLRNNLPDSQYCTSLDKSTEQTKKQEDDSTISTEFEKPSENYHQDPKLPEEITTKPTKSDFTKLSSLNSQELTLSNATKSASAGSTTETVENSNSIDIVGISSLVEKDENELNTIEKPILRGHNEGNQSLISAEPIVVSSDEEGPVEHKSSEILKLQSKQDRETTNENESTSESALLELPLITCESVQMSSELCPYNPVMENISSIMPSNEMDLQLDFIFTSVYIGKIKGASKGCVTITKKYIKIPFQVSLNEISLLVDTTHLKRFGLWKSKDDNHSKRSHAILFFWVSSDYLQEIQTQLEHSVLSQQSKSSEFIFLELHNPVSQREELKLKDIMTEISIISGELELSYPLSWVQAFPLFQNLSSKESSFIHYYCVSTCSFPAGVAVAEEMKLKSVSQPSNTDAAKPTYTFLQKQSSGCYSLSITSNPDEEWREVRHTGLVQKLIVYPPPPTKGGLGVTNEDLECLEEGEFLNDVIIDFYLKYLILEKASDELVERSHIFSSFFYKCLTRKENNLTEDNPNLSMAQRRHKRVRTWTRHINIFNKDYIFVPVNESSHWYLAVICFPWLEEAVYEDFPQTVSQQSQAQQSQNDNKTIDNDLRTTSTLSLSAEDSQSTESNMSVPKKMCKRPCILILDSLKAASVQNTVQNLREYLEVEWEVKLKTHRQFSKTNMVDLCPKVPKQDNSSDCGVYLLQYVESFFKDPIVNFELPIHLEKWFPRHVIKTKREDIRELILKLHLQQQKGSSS

[2] = target: T3, Sentrin-specific protease 8 (Homo sapiens, UniProt Q96LD8);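 also: luminescence read-out of SENP8 inhibition, dose-response confirmation following an ultra-high-throughput screen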
T3 sequence (Q96LD8 whole entry): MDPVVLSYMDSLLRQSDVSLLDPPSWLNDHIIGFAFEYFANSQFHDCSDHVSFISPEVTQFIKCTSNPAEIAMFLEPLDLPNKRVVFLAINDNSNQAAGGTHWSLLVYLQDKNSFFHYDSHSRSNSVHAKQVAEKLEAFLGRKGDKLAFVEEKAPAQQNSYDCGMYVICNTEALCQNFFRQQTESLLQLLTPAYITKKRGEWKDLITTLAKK

Measured: IC50

Clc1ccc(C2=CSC3=Nc4cccc5cccc(c45)N23)cc1
active: Caspase-3 7.93 µM | [1] 5.65 µM | [2] 2.04 µM
